In US12077503B2, “Substituted cyclic amides and their use as herbicides” (FMC CORPORATION, priority 2015, dated 2024):

Experiments:
Assay type in all cases: in vivo
[1] = test system: velvetleaf (Abutilon theophrasti); assay: Test G Pre-Emergence Protocol; conditions: Abutilon theophrasti, pre-emergence, 312 h, evaluated after 13 days; for pest or weed control at 15.625 g/ha: 15.625 g ai/ha; for pest or weed control at 15.625 g/ha / pest or weed control at 250 g/ha: read-out: Velvetleaf damage rating (100=total damage to plant; 0=no damage to plant); for pest or weed control at 62.5 g/ha: 62.5 g ai/ha, 100=total damage to plant, 0=no damage to plant, read-out: plant damage rating, Velvetleaf; for pest or weed control at 250 g/ha: 250 g ai/ha
Method in brief: (§1)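 Spraying took place one day after sowing, at 15.625, 62.5 or 250 g/ha, using an acetone/water (50:50) spray solution containing 0.5% Tween 20. Plants were kept under glasshouse conditions (24/16 °C, 14 h light, 65% humidity, watered twice daily), and injury was rated 0–100 at day 13.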

[2] = test system: giant foxtail (Setaria faberi); assay: Test G Pre-Emergence Protocol; conditions: Setaria faberi, pre-emergence, 312 h, evaluated after 13 days; for pest or weed control at 15.625 g/ha: 15.625 g ai/ha; for pest or weed control at 15.625 g/ha / pest or weed control at 250 g/ha: read-out: Foxtail, Giant damage rating (100=total damage to plant; 0=no damage to plant); for pest or weed control at 62.5 g/ha: 62.5 g ai/ha, 100=total damage to plant, 0=no damage to plant, read-out: plant damage rating, Foxtail, Giant; for pest or weed control at 250 g/ha: 250 g ai/ha
Method in brief: as §1

[3] = test system: barnyardgrass (Echinochloa crus-galli); assay: Test G Pre-Emergence Protocol; conditions: Echinochloa crus-galli, pre-emergence, 312 h, evaluated after 13 days; for pest or weed control at 15.625 g/ha: 15.625 g ai/ha, read-out: Barnyard grass damage rating (100=total damage to plant; 0=no damage to plant); for pest or weed control at 62.5 g/ha: 62.5 g ai/ha, 100=total damage to plant, 0=no damage to plant, read-out: plant damage rating, Barnyardgrass; for pest or weed control at 250 g/ha: 250 g ai/ha, read-out: Barnyardgrass damage rating (100=total damage to plant; 0=no damage to plant)
Method in brief: as §1

[4] = test system: redroot pigweed (Amaranthus retroflexus); assay: Test G Pre-Emergence Protocol; conditions: Amaranthus retroflexus, pre-emergence, 312 h, evaluated after 13 days; for pest or weed control at 15.625 g/ha: 15.625 g ai/ha; for pest or weed control at 15.625 g/ha / pest or weed control at 250 g/ha: read-out: Pigweed, Redroot damage rating (100=total damage to plant; 0=no damage to plant); for pest or weed control at 62.5 g/ha: 62.5 g ai/ha, 100=total damage to plant, 0=no damage to plant, read-out: plant damage rating, Pigweed, Redroot; for pest or weed control at 250 g/ha: 250 g ai/ha
Method in brief: as §1

[5] = test system: ivy-leaved morning glory (Ipomoea hederacea); assay: Test G Pre-Emergence Protocol; conditions: Ipomoea, pre-emergence, 312 h, evaluated after 13 days; for pest or weed control at 15.625 g/ha: 15.625 g ai/ha, read-out: Morning-glory, Ivy-leaved damage rating (100=total damage to plant; 0=no damage to plant); for pest or weed control at 62.5 g/ha: 62.5 g ai/ha, 100=total damage to plant, 0=no damage to plant, read-out: plant damage rating, Morningglory, Ivy-leaved; for pest or weed control at 250 g/ha: 250 g ai/ha, read-out: Morningglory, Ivy-leaved damage rating (100=total damage to plant; 0=no damage to plant)
Method in brief: as §1

corn (Zea mays) [6] = assay: Test G Pre-Emergence Protocol; conditions: Zea mays, pre-emergence, 312 h, evaluated after 13 days; for plant injury at 15.625 g/ha: 15.625 g ai/ha; for plant injury at 15.625 g/ha / plant injury at 250 g/ha: read-out: Corn damage rating (100=total damage to plant; 0=no damage to plant); for plant injury at 62.5 g/ha: 62.5 g ai/ha, 100=total damage to plant, 0=no damage to plant, read-out: plant damage rating, Corn; for plant injury at 250 g/ha: 250 g ai/ha
Method in brief: as §1

[7] = test system: velvetleaf (Abutilon theophrasti); assay: Test G Post-Emergence Protocol; conditions: Abutilon theophrasti, post-emergence, 312 h; for pest or weed control at 15.625 g/ha: 15.625 g ai/ha, evaluated after 13 days (100=total damage to plant; 0=no damage to plant), read-out: Velvetleaf damage rating; for pest or weed control at 62.5 g/ha: 62.5 g ai/ha, read-out: Velvetleaf damage rating (100=total damage to plant; 0=no damage to plant); for pest or weed control at 62.5 g/ha / pest or weed control at 250 g/ha: evaluated after 13 days; for pest or weed control at 250 g/ha: 250 g ai/ha, read-out: damage to plant, Velvetleaf (100=total damage to plant; 0=no damage to plant)
Method in brief: (§2)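 Pot-grown seedlings, 8 days old, raised in a glasshouse at 24/16 °C day/night with 14 h light and 65% humidity, were sprayed post-emergence with test compound in acetone/water (50:50) plus 0.5% Tween 20 at 15.625, 62.5 or 250 g/ha. Damage was scored visually 13 days later on a 0–100 scale (100 = total damage).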

[8] = test system: giant foxtail (Setaria faberi); assay: Test G Post-Emergence Protocol; conditions: Setaria faberi, post-emergence, 312 h; for pest or weed control at 15.625 g/ha: 15.625 g ai/ha, evaluated after 13 days (100=total damage to plant; 0=no damage to plant), read-out: Foxtail, Giant damage rating; for pest or weed control at 62.5 g/ha: 62.5 g ai/ha, read-out: Foxtail, Giant damage rating (100=total damage to plant; 0=no damage to plant); for pest or weed control at 62.5 g/ha / pest or weed control at 250 g/ha: evaluated after 13 days; for pest or weed control at 250 g/ha: 250 g ai/ha, read-out: damage to plant, Foxtail, Giant (100=total damage to plant; 0=no damage to plant)
Method in brief: as §2

[9] = test system: barnyardgrass (Echinochloa crus-galli); assay: Test G Post-Emergence Protocol; conditions: Echinochloa crus-galli, post-emergence, 312 h; for pest or weed control at 15.625 g/ha: 15.625 g ai/ha, evaluated after 13 days (100=total damage to plant; 0=no damage to plant), read-out: Barnyardgrass damage rating; for pest or weed control at 62.5 g/ha: 62.5 g ai/ha, read-out: Barnyardgrass damage rating (100=total damage to plant; 0=no damage to plant); for pest or weed control at 62.5 g/ha / pest or weed control at 250 g/ha: evaluated after 13 days; for pest or weed control at 250 g/ha: 250 g ai/ha, read-out: damage to plant, Barnyardgrass (100=total damage to plant; 0=no damage to plant)
Method in brief: as §2

[10] = test system: redroot pigweed (Amaranthus retroflexus); assay: Test G Post-Emergence Protocol; conditions: Amaranthus retroflexus, post-emergence, 312 h; for pest or weed control at 15.625 g/ha: 15.625 g ai/ha, evaluated after 13 days (100=total damage to plant; 0=no damage to plant), read-out: Pigweed, Redroot damage rating; for pest or weed control at 62.5 g/ha: 62.5 g ai/ha, read-out: Pigweed, Redroot damage rating (100=total damage to plant; 0=no damage to plant); for pest or weed control at 62.5 g/ha / pest or weed control at 250 g/ha: evaluated after 13 days; for pest or weed control at 250 g/ha: 250 g ai/ha, read-out: damage to plant, Pigweed, Redroot (100=total damage to plant; 0=no damage to plant)
Method in brief: as §2

[11] = test system: ivy-leaved morning glory (Ipomoea hederacea); assay: Test G Post-Emergence Protocol; conditions: Ipomoea, post-emergence, 312 h; for pest or weed control at 15.625 g/ha: 15.625 g ai/ha, evaluated after 13 days (100=total damage to plant; 0=no damage to plant), read-out: Morningglory, Ivy-leaved damage rating; for pest or weed control at 62.5 g/ha: 62.5 g ai/ha, read-out: Morningglory, Ivy-leaved damage rating (100=total damage to plant; 0=no damage to plant); for pest or weed control at 62.5 g/ha / pest or weed control at 250 g/ha: evaluated after 13 days; for pest or weed control at 250 g/ha: 250 g ai/ha, read-out: damage to plant, Morningglory, Ivy-leaved (100=total damage to plant; 0=no damage to plant)
Method in brief: as §2

corn (Zea mays) [12] = assay: Test G Post-Emergence Protocol; conditions: Zea mays, post-emergence, 312 h; for plant injury at 15.625 g/ha: 15.625 g ai/ha, evaluated after 13 days (100=total damage to plant; 0=no damage to plant), read-out: Corn damage rating; for plant injury at 62.5 g/ha: 62.5 g ai/ha, read-out: Corn damage rating (100=total damage to plant; 0=no damage to plant); for plant injury at 62.5 g/ha / plant injury at 250 g/ha: evaluated after 13 days; for plant injury at 250 g/ha: 250 g ai/ha, read-out: damage to plant, Corn (100=total damage to plant; 0=no damage to plant)
Method in brief: as §2

Row | SMILES | pest or weed control at 15.625 g/ha [1] [%] | pest or weed control at 62.5 g/ha [1] [%] | pest or weed control at 250 g/ha [1] [%] | pest or weed control at 15.625 g/ha [2] [%] | pest or weed control at 62.5 g/ha [2] [%] | pest or weed control at 250 g/ha [2] [%] | pest or weed control at 15.625 g/ha [3] [%] | pest or weed control at 62.5 g/ha [3] [%] | pest or weed control at 250 g/ha [3] [%] | pest or weed control at 15.625 g/ha [4] [%] | pest or weed control at 62.5 g/ha [4] [%] | pest or weed control at 250 g/ha [4] [%] | pest or weed control at 15.625 g/ha [5] [%] | pest or weed control at 62.5 g/ha [5] [%] | pest or weed control at 250 g/ha [5] [%] | plant injury at 15.625 g/ha (corn (Zea mays) [6]) [%] | plant injury at 62.5 g/ha (corn (Zea mays) [6]) [%] | plant injury at 250 g/ha (corn (Zea mays) [6]) [%] | pest or weed control at 15.625 g/ha [7] [%] | pest or weed control at 62.5 g/ha [7] [%] | further results
1 | Cc1cc(NC(=O)[C@@H]2C(=O)N(C)C[C@H]2c2ccc(C(F)(F)F)cc2)ccn1 (racemic) [Compound 1600] | 0 | 0 | 0 | 0 | 0 | 0 | 0 | 0 | 0 | 0 | 0 | 0 | 0 | 0 | 0 | 0 | 0 | 0 | 0 | 0 | pest or weed control at 250 g/ha [7]: 0%; pest or weed control at 15.625 g/ha [8]: 0%; pest or weed control at 62.5 g/ha [8]: 0%; pest or weed control at 250 g/ha [8]: 0%; pest or weed control at 15.625 g/ha [9]: 0%; pest or weed control at 62.5 g/ha [9]: 0%; pest or weed control at 250 g/ha [9]: 0%; pest or weed control at 15.625 g/ha [10]: 0%; pest or weed control at 62.5 g/ha [10]: 0%; pest or weed control at 250 g/ha [10]: 0%; pest or weed control at 15.625 g/ha [11]: 0%; pest or weed control at 62.5 g/ha [11]: 0%; pest or weed control at 250 g/ha [11]: 0%; plant injury at 15.625 g/ha (corn (Zea mays) [12]): 0%; plant injury at 62.5 g/ha (corn (Zea mays) [12]): 0%; plant injury at 250 g/ha (corn (Zea mays) [12]): 0%
2 | CN1C[C@@H](c2ccc(C(F)(F)F)cc2)[C@H](C(=O)Nc2cccc(Cl)n2)C1=O (racemic) [Compound 1606] | 0 | 0 | 0 | 0 | 60 | 90 | 0 | 20 | 60 | 0 | 0 | 0 | 0 | 0 | 10 | 0 | 0 | 10 | 0 | 0 | pest or weed control at 250 g/ha [7]: 60%; pest or weed control at 15.625 g/ha [8]: 40%; pest or weed control at 62.5 g/ha [8]: 70%; pest or weed control at 250 g/ha [8]: 80%; pest or weed control at 15.625 g/ha [9]: 20%; pest or weed control at 62.5 g/ha [9]: 40%; pest or weed control at 250 g/ha [9]: 50%; pest or weed control at 15.625 g/ha [10]: 40%; pest or weed control at 62.5 g/ha [10]: 40%; pest or weed control at 250 g/ha [10]: 100%; pest or weed control at 15.625 g/ha [11]: 0%; pest or weed control at 62.5 g/ha [11]: 0%; pest or weed control at 250 g/ha [11]: 30%; plant injury at 15.625 g/ha (corn (Zea mays) [12]): 0%; plant injury at 62.5 g/ha (corn (Zea mays) [12]): 0%; plant injury at 250 g/ha (corn (Zea mays) [12]): 0%
